Assay results from EPA's ToxValDB 9.5 (doi:10.2903/j.efsa.2014.3744).

Experiments:
Canidae = details: chronic; duration: 1 years; oral; Dog Other; clinical chemistry
Daphnia magna = details: chronic/long-term; duration: 21 days; reproduction
Apis mellifera = details: acute, duration: 48 hours, mortality
Oncorhynchus mykiss = details: chronic/long-term; duration: 96 days; growth
Tagia sp. = details: acute; duration: 14 days; mortality

For `CC1(C(=O)Nc2ccc(O)c(Cl)c2Cl)CCCCC1` [Fenhexamid], the NOAEL (Canidae) was 19.2 mg/kg-day, the NOEC (Daphnia magna) was 1.03 mg/L and the LD50 (Apis mellifera; dermal) was over 200 µg/piece. It also gave an LD50 (Apis mellifera; oral, unspecified) of over 102 µg/piece, an NOEC (Oncorhynchus mykiss) of 0.101 mg/L and an LD50 (Rattus norvegicus; acute, oral, mortality) of over 5000 mg/kg-day. The NOAEL (Rattus norvegicus; reproduction developmental) was 40.2 mg/kg-day, the LC50 (Colinus virginianus; acute, oral, diet, mortality) was over 804 mg/kg-day and the LD50 (Colinus virginianus; acute, oral, mortality) was over 2000 mg/kg-day. The NOEC (Colinus virginianus; reproduction developmental) was 154 mg/kg-day and the LC50 (Tagia sp.) was at least 1000 mg/kg.
